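Following 48 hours of exposure in 96-well plates, responses at five concentrations were used to interpolate endpoints linearly. TGI marks complete inhibition of growth.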
Key:
Assay in all cases: DTP human tumour cell line panel, 48 h
MCF7 breast = test system: MCF7 breast
MDA-MB-231 breast = test system: MDA-MB-231 breast
OVCAR-4 ovarian = test system: OVCAR-4 ovarian
T-47D breast = test system: T-47D breast
EKVX NSCLC = test system: EKVX NSCLC
SW-620 colon = test system: SW-620 colon
SK-OV-3 ovarian = test system: SK-OV-3 ovarian
SN12C renal = test system: SN12C renal
HT29 colon = test system: HT29 colon
UACC-257 melanoma = test system: UACC-257 melanoma
A549 NSCLC = test system: A549 NSCLC
SK-MEL-5 melanoma = test system: SK-MEL-5 melanoma
ACHN renal = test system: ACHN renal
KM12 colon = test system: KM12 colon
HS 578T breast = test system: HS 578T breast
CAKI-1 renal = test system: CAKI-1 renal
NCI/ADR-RES ovarian = test system: NCI/ADR-RES ovarian
NCI-H460 lung = test system: NCI-H460 lung
MOLT-4 leukemia = test system: MOLT-4 leukemia
M14 melanoma = test system: M14 melanoma
RPMI-8226 leukemia = test system: RPMI-8226 leukemia
SF-268 CNS = test system: SF-268 CNS
NCI-H23 lung = test system: NCI-H23 lung
SK-MEL-28 melanoma = test system: SK-MEL-28 melanoma
HCT-116 colon = test system: HCT-116 colon
IGROV1 ovarian = test system: IGROV1 ovarian
COLO 205 colon = test system: COLO 205 colon
DU-145 prostate = test system: DU-145 prostate
HL-60(TB) leukemia = test system: HL-60(TB) leukemia
MDA-N = test system: MDA-N
786-0 renal = test system: 786-0 renal
TK-10 renal = test system: TK-10 renal
SNB-75 CNS = test system: SNB-75 CNS
HCT-15 colon = test system: HCT-15 colon
A498 renal = test system: A498 renal
SK-MEL-2 melanoma = test system: SK-MEL-2 melanoma
SF-295 CNS = test system: SF-295 CNS
HOP-62 NSCLC = test system: HOP-62 NSCLC
NCI-H522 lung = test system: NCI-H522 lung
UO-31 renal = test system: UO-31 renal
HOP-92 NSCLC = test system: HOP-92 NSCLC
UACC-62 melanoma = test system: UACC-62 melanoma
PC-3 prostate = test system: PC-3 prostate
MDA-MB-435 = test system: MDA-MB-435
MALME-3M melanoma = test system: MALME-3M melanoma
CCRF-CEM leukemia = test system: CCRF-CEM leukemia
U251 CNS = test system: U251 CNS
SNB-19 CNS = test system: SNB-19 CNS
LOX IMVI melanoma = test system: LOX IMVI melanoma
BT-549 breast = test system: BT-549 breast
RXF 393 renal = test system: RXF 393 renal
OVCAR-3 ovarian = test system: OVCAR-3 ovarian
OVCAR-5 ovarian = test system: OVCAR-5 ovarian
K-562 leukemia = test system: K-562 leukemia
HCC-2998 colon = test system: HCC-2998 colon
OVCAR-8 ovarian = test system: OVCAR-8 ovarian
SF-539 CNS = test system: SF-539 CNS
NCI-H226 lung = test system: NCI-H226 lung

O=C1/C(=C/c2ccc(Cl)cc2)N=C(c2ccccc2)N1c1nc2ccc(Sc3ccccc3)cc2[nH]1
TGI (MCF7 breast): 63.5 µM
TGI (MDA-MB-231 breast): 90.1 µM
TGI (OVCAR-4 ovarian): > 100 µM
TGI (T-47D breast): > 100 µM
TGI (EKVX NSCLC): > 100 µM
TGI (SW-620 colon): 80.8 µM
TGI (SK-OV-3 ovarian): > 100 µM
TGI (SN12C renal): > 100 µM
TGI (HT29 colon): 40 µM
TGI (UACC-257 melanoma): 55.8 µM
TGI (A549 NSCLC): > 100 µM
TGI (SK-MEL-5 melanoma): 29.2 µM
TGI (ACHN renal): > 100 µM
TGI (KM12 colon): 81.2 µM
TGI (HS 578T breast): 91.4 µM
TGI (CAKI-1 renal): > 100 µM
TGI (NCI/ADR-RES ovarian): 75.5 µM
TGI (NCI-H460 lung): 61.8 µM
TGI (MOLT-4 leukemia): 87.6 µM
TGI (M14 melanoma): 35.1 µM
TGI (RPMI-8226 leukemia): 55.7 µM
TGI (SF-268 CNS): > 100 µM
TGI (NCI-H23 lung): > 100 µM
TGI (SK-MEL-28 melanoma): 72.7 µM
TGI (HCT-116 colon): 62.3 µM
TGI (IGROV1 ovarian): > 100 µM
TGI (COLO 205 colon): 33.8 µM
TGI (DU-145 prostate): > 100 µM
TGI (HL-60(TB) leukemia): 35.6 µM
TGI (MDA-N): 27.7 µM
TGI (786-0 renal): 64.6 µM
TGI (TK-10 renal): 59.6 µM
TGI (SNB-75 CNS): 60.2 µM
TGI (HCT-15 colon): > 100 µM
TGI (A498 renal): 72.3 µM
TGI (SK-MEL-2 melanoma): 31.6 µM
TGI (SF-295 CNS): 87.1 µM
TGI (HOP-62 NSCLC): > 100 µM
TGI (NCI-H522 lung): 54.3 µM
TGI (UO-31 renal): > 100 µM
TGI (HOP-92 NSCLC): > 100 µM
TGI (UACC-62 melanoma): 29.8 µM
TGI (PC-3 prostate): > 100 µM
TGI (MDA-MB-435): 27.1 µM
TGI (MALME-3M melanoma): 58.9 µM
TGI (CCRF-CEM leukemia): 87 µM
TGI (U251 CNS): 84.7 µM
TGI (SNB-19 CNS): > 100 µM
TGI (LOX IMVI melanoma): 61.9 µM
TGI (BT-549 breast): 57.7 µM
TGI (RXF 393 renal): > 100 µM
TGI (OVCAR-3 ovarian): > 100 µM
TGI (OVCAR-5 ovarian): > 100 µM
TGI (K-562 leukemia): 61.8 µM
TGI (HCC-2998 colon): 31.4 µM
TGI (OVCAR-8 ovarian): > 100 µM

O=[N+]([O-])/C(C(Cl)=C(Cl)Cl)=C(\Nc1cccc2ccccc12)n1nnc2ccccc21
TGI (MCF7 breast): > 100 µM
TGI (MDA-MB-231 breast): > 100 µM
TGI (OVCAR-4 ovarian): > 100 µM
TGI (T-47D breast): > 100 µM
TGI (EKVX NSCLC): > 100 µM
TGI (SW-620 colon): > 100 µM
TGI (SK-OV-3 ovarian): > 100 µM
TGI (SN12C renal): > 100 µM
TGI (HT29 colon): > 100 µM
TGI (UACC-257 melanoma): > 100 µM
TGI (A549 NSCLC): > 100 µM
TGI (ACHN renal): > 100 µM
TGI (KM12 colon): > 100 µM
TGI (HS 578T breast): 39.1 µM
TGI (CAKI-1 renal): > 100 µM
TGI (NCI/ADR-RES ovarian): > 100 µM
TGI (NCI-H460 lung): > 100 µM
TGI (M14 melanoma): > 100 µM
TGI (RPMI-8226 leukemia): > 100 µM
TGI (SF-268 CNS): > 100 µM
TGI (NCI-H23 lung): > 100 µM
TGI (SK-MEL-28 melanoma): > 100 µM
TGI (HCT-116 colon): > 100 µM
TGI (SF-539 CNS): > 100 µM
TGI (COLO 205 colon): 41 µM
TGI (DU-145 prostate): > 100 µM
TGI (MDA-N): > 100 µM
TGI (786-0 renal): > 100 µM
TGI (SNB-75 CNS): > 100 µM
TGI (HCT-15 colon): > 100 µM
TGI (A498 renal): > 100 µM
TGI (SK-MEL-2 melanoma): > 100 µM
TGI (SF-295 CNS): > 100 µM
TGI (HOP-62 NSCLC): > 100 µM
TGI (UO-31 renal): > 100 µM
TGI (UACC-62 melanoma): > 100 µM
TGI (PC-3 prostate): > 100 µM
TGI (MDA-MB-435): > 100 µM
TGI (MALME-3M melanoma): > 100 µM
TGI (CCRF-CEM leukemia): > 100 µM
TGI (U251 CNS): > 100 µM
TGI (SNB-19 CNS): > 100 µM
TGI (LOX IMVI melanoma): > 100 µM
TGI (NCI-H226 lung): > 100 µM
TGI (BT-549 breast): 98.8 µM
TGI (RXF 393 renal): 79.3 µM
TGI (OVCAR-3 ovarian): > 100 µM
TGI (OVCAR-5 ovarian): > 100 µM
TGI (HCC-2998 colon): > 100 µM
TGI (OVCAR-8 ovarian): > 100 µM

N#Cc1c(=N)cc2c3ccccc3oc3c(C#N)c(N)[nH]c1c32
TGI (MCF7 breast): > 100 µM
TGI (MDA-MB-231 breast): > 100 µM
TGI (OVCAR-4 ovarian): > 100 µM
TGI (T-47D breast): > 100 µM
TGI (EKVX NSCLC): > 100 µM
TGI (SW-620 colon): > 100 µM
TGI (SK-OV-3 ovarian): > 100 µM
TGI (SN12C renal): > 100 µM
TGI (HT29 colon): > 100 µM
TGI (UACC-257 melanoma): > 100 µM
TGI (A549 NSCLC): > 100 µM
TGI (SK-MEL-5 melanoma): > 100 µM
TGI (ACHN renal): > 100 µM
TGI (KM12 colon): > 100 µM
TGI (HS 578T breast): > 100 µM
TGI (CAKI-1 renal): > 100 µM
TGI (NCI/ADR-RES ovarian): > 100 µM
TGI (NCI-H460 lung): > 100 µM
TGI (MOLT-4 leukemia): > 100 µM
TGI (M14 melanoma): > 100 µM
TGI (RPMI-8226 leukemia): > 100 µM
TGI (SF-268 CNS): > 100 µM
TGI (NCI-H23 lung): > 100 µM
TGI (SK-MEL-28 melanoma): > 100 µM
TGI (HCT-116 colon): > 100 µM
TGI (IGROV1 ovarian): > 100 µM
TGI (SF-539 CNS): > 100 µM
TGI (COLO 205 colon): > 100 µM
TGI (DU-145 prostate): > 100 µM
TGI (HL-60(TB) leukemia): > 100 µM
TGI (MDA-N): > 100 µM
TGI (786-0 renal): > 100 µM
TGI (TK-10 renal): > 100 µM
TGI (SNB-75 CNS): > 100 µM
TGI (HCT-15 colon): > 100 µM
TGI (A498 renal): > 100 µM
TGI (SK-MEL-2 melanoma): > 100 µM
TGI (SF-295 CNS): > 100 µM
TGI (HOP-62 NSCLC): > 100 µM
TGI (UO-31 renal): > 100 µM
TGI (HOP-92 NSCLC): > 100 µM
TGI (UACC-62 melanoma): > 100 µM
TGI (PC-3 prostate): > 100 µM
TGI (MDA-MB-435): > 100 µM
TGI (MALME-3M melanoma): > 100 µM
TGI (CCRF-CEM leukemia): > 100 µM
TGI (U251 CNS): > 100 µM
TGI (SNB-19 CNS): > 100 µM
TGI (LOX IMVI melanoma): > 100 µM
TGI (NCI-H226 lung): > 100 µM
TGI (BT-549 breast): > 100 µM
TGI (RXF 393 renal): > 100 µM
TGI (OVCAR-3 ovarian): > 100 µM
TGI (OVCAR-5 ovarian): > 100 µM
TGI (K-562 leukemia): > 100 µM
TGI (HCC-2998 colon): > 100 µM
TGI (OVCAR-8 ovarian): > 100 µM
